Data on 2 compounds can be found in ChEMBL document CHEMBL5506005, “Biochemical and structural characterization of chlorhexidine as an ATP-assisted inhibitor against type 1 methionyl-tRNA synthetase from Gram-positive bacteria” (Eur J Med Chem, 2024).

For assay [1], the target named is Methionine--tRNA ligase (Staphylococcus aureus (strain Mu50 / ATCC 700699)) (UniProt P67578). The assay is described as follows: Binding affinity to Staphylococcus aureus MetRS expressed in Escherichia coli BL21(DE3) cells assessed as change in enthalpy by ITC analysis. (ITC needs no label: the signal is the heat of the interaction.)
The target is the same in assay [2]. The assay is described as follows: Binding affinity to Staphylococcus aureus MetRS expressed in Escherichia coli BL21(DE3) cells assessed as change in entropy in presence of 50 uM ATP by ITC analysis.
For assay [3] the target is unchanged. The assay is described as follows: Binding affinity to Staphylococcus aureus MetRS expressed in Escherichia coli BL21(DE3) cells assessed as change in enthalpy in presence of 1 mM ATP by ITC analysis.
The target is the same in assay [4]. The assay is described as follows: Binding affinity to Staphylococcus aureus MetRS expressed in Escherichia coli BL21(DE3) cells assessed as change in entropy in presence of 1 mM ATP by ITC analysis.
The target is the same in assay [5]. The assay is described as follows: Binding affinity to Staphylococcus aureus MetRS expressed in Escherichia coli BL21(DE3) cells assessed as change in enthalpy in presence of 20 uM ATP by ITC analysis.
Assay [6] shares this target. The assay is described as follows: Binding affinity to Staphylococcus aureus MetRS expressed in Escherichia coli BL21(DE3) cells assessed as change in Gibbs free energy in presence of 50 uM ATP by ITC analysis.
Assay [7] has the same target. The assay is described as follows: Binding affinity to Staphylococcus aureus MetRS expressed in Escherichia coli BL21(DE3) cells assessed as change in Gibbs free energy in presence of 20 uM ATP by ITC analysis.
The target is the same in assay [8]. The assay is described as follows: Binding affinity to Staphylococcus aureus MetRS expressed in Escherichia coli BL21(DE3) cells assessed as change in Gibbs free energy in presence of 1 mM ATP by ITC analysis.
Assay [9] has the same target. The assay is described as follows: Binding affinity to Staphylococcus aureus MetRS expressed in Escherichia coli BL21(DE3) cells assessed as change in enthalpy in presence of 50 uM ATP by ITC analysis.
The target is the same in assay [10]. The assay is described as follows: Binding affinity to Staphylococcus aureus MetRS expressed in Escherichia coli BL21(DE3) cells assessed as change in Gibbs free energy by ITC analysis.
The target is the same in assay [11]. The assay is described as follows: Binding affinity to Staphylococcus aureus MetRS expressed in Escherichia coli BL21(DE3) cells assessed as thermal stability by measuring change in melting temperature incubated for 10 mins followed by heat treatment in presence of 2 mM ATP by SYPRO orange dye based TSA.
Assay [12] has the same target. The assay is described as follows: Binding affinity to Staphylococcus aureus MetRS expressed in Escherichia coli BL21(DE3) cells assessed as change in entropy in presence of 20 uM ATP by ITC analysis.
Assay [13] shares this target. The assay is described as follows: Binding affinity to Staphylococcus aureus MetRS expressed in Escherichia coli BL21(DE3) cells assessed as change in entropy by ITC analysis.
Assay [14] addresses T1, Methionine--tRNA ligase (Staphylococcus aureus (strain Mu50 / ATCC 700699), UniProt P67578). The assay is described as follows: Binding affinity to Staphylococcus aureus MetRS expressed in Escherichia coli BL21(DE3) cells assessed as dissociation constant in presence of 1 mM ATP by ITC analysis.
The target of assay [15] is T2, Methionine--tRNA ligase (Enterococcus faecalis, UniProt A0A3N3ZFK4). The assay is described as follows: Inhibition of Enterococcus faecalis type 1 MetRS expressed in Escherichia coli BL21(DE3) cells measured after 1.5 hrs in presence of ATP by pre-transfer editing assay.
Assay [16] addresses T1, Methionine--tRNA ligase. The assay is described as follows: Binding affinity to Staphylococcus aureus MetRS expressed in Escherichia coli BL21(DE3) cells assessed as dissociation constant in presence of 50 uM ATP by ITC analysis.
Assay [17] addresses T1, Methionine--tRNA ligase. The assay is described as follows: Binding affinity to Staphylococcus aureus MetRS expressed in Escherichia coli BL21(DE3) cells assessed as dissociation constant in presence of 1 mM ADP by ITC analysis.
In assay [18] the target is T1, Methionine--tRNA ligase. The assay is described as follows: Inhibition of Staphylococcus aureus MetRS expressed in Escherichia coli BL21(DE3) cells measured after 2.5 hrs in presence of ATP by pre-transfer editing assay.
In assay [19] the target is T1, Methionine--tRNA ligase. The assay is described as follows: Binding affinity to Staphylococcus aureus MetRS expressed in Escherichia coli BL21(DE3) cells assessed as dissociation constant in presence of ATP/L-Met by ITC analysis.
Assay [20] deals with T2, Methionine--tRNA ligase. The assay is described as follows: Binding affinity to Enterococcus faecalis type 1 MetRS expressed in Escherichia coli BL21(DE3) cells assessed as dissociation constant by ITC analysis.
The target of assay [21] is T1, Methionine--tRNA ligase. The assay is described as follows: Binding affinity to Staphylococcus aureus MetRS expressed in Escherichia coli BL21(DE3) cells assessed as dissociation constant in presence of 1 mM AMP by ITC analysis.
For assay [22], the target named is T1, Methionine--tRNA ligase. The assay is described as follows: Binding affinity to Staphylococcus aureus MetRS expressed in Escherichia coli BL21(DE3) cells assessed as dissociation constant in presence of 20 uM ATP by ITC analysis.
In assay [23] the target is T2, Methionine--tRNA ligase. The assay is described as follows: Binding affinity to Enterococcus faecalis type 1 MetRS expressed in Escherichia coli BL21(DE3) cells assessed as dissociation constant in presence of 1 mM ATP by ITC analysis.
Assay [24] addresses T1, Methionine--tRNA ligase. The assay is described as follows: Binding affinity to Staphylococcus aureus MetRS expressed in Escherichia coli BL21(DE3) cells assessed as dissociation constant by ITC analysis.
In assay [25] the target is T1, Methionine--tRNA ligase. The assay is described as follows: Binding affinity to Staphylococcus aureus MetRS expressed in Escherichia coli BL21(DE3) cells assessed as dissociation constant in presence of 500 uM ATP by ITC analysis.

T2 sequence (A0A3N3ZFK4 whole entry): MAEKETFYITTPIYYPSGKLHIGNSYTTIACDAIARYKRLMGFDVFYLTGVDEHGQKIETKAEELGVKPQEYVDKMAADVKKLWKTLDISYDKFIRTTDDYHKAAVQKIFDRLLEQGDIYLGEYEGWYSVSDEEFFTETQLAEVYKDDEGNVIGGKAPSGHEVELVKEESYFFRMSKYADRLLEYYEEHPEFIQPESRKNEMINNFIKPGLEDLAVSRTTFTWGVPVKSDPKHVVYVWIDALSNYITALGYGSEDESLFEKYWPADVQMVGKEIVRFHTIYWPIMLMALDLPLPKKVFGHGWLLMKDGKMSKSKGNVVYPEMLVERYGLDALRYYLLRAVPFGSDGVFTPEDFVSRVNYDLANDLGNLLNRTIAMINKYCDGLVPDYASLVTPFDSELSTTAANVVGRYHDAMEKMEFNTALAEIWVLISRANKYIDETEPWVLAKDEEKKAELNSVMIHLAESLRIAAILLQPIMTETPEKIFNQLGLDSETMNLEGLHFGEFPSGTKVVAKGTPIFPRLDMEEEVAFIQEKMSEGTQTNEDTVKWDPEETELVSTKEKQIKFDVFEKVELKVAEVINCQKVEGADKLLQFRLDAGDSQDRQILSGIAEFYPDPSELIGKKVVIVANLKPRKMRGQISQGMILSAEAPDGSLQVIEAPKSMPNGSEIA
Methionine--tRNA ligase (Staphylococcus aureus (strain Mu50 / ATCC 700699)), sequence (P67578 whole entry): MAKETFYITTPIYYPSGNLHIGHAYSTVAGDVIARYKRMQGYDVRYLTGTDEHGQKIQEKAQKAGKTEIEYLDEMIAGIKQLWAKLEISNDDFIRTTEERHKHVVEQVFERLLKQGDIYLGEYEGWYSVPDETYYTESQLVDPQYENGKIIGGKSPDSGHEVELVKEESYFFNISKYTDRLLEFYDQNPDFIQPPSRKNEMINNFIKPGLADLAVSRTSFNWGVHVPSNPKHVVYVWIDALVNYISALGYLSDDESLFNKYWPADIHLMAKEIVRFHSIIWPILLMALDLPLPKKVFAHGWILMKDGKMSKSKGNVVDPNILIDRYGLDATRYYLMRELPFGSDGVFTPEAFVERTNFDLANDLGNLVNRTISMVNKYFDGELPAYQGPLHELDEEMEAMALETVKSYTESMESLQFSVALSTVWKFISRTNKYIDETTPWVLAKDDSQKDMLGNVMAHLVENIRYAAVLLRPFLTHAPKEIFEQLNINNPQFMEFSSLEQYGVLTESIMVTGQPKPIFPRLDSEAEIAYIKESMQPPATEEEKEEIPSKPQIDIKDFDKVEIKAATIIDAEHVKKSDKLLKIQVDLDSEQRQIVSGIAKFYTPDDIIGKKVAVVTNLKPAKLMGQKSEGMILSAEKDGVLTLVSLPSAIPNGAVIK
T1 sequence (P67578 whole entry): as above

In general, ΔTm refers to the shift of the melting midpoint relative to a reference. For `N=C(NCCCCNC(=N)NC(=N)Nc1ccc(Cl)cc1)NC(=N)Nc1ccc(Cl)cc1`, the deltaH in assay [1] is -8.62 kcal/mol; in assay [3] it was -14.4 kcal/mol; in [5] it was -18 kcal/mol; in assay [9] it was -15.7 kcal/mol. Moreover, the -TdeltaS amounted to 7.28 kcal/mol in [2], 6.23 kcal/mol in assay [4], 11.3 kcal/mol in [12] and 1.94 kcal/mol in [13]. Moreover, the deltaG in assay [6] was -8.61 kcal/mol; in assay [7], -8 kcal/mol; in assay [8] it was -8.7 kcal/mol; in assay [10], -7.24 kcal/mol. In [11], the thermal shift (ΔTm) was 9 °C.

A word on the Kd: it is the equilibrium constant for the complex coming apart. Usually IC50 stands for the concentration needed to halve the response being measured. `[H]/N=C(\N/C(=N/[H])NCCCCCCNC(=N)NC(=N)Nc1ccc(Cl)cc1)Nc1ccc(Cl)cc1` [CHLORHEXIDINE]: the Kd on Methionine--tRNA ligase [14] was 450 nM; at Methionine--tRNA ligase [16], 1210 nM; on Methionine--tRNA ligase [17] it was 1900 nM; at Methionine--tRNA ligase [19], 4.19 µM; on Methionine--tRNA ligase [20] it was 5.04 µM; at Methionine--tRNA ligase [21] it was 6 nM. Besides, the Kd was determined as 3.1 µM at Methionine--tRNA ligase [22], 300 nM at Methionine--tRNA ligase [23], 10.2 µM on Methionine--tRNA ligase [24] and 593 nM on Methionine--tRNA ligase [25]. In addition, the IC50 is 8.5 µM at Methionine--tRNA ligase [15] and 30.8 µM on Methionine--tRNA ligase [18].
